Measured values reported in ChEMBL document CHEMBL3351767, “The discovery of Polo-like kinase 4 inhibitors: design and optimization of spiro[cyclopropane-1,3'[3H]indol]-2'(1'H).ones as orally bioavailable antitumor agents” (J Med Chem, 2015).
Converted amounts (≈) assume the structure as drawn.

Legend:
CYP1A2 = molecular target: T1, CYP1A2 (Homo sapiens, UniProt P05177); experiment: (§1) Inhibition of CYP1A2 (unknown origin) using CEC substrate after 15 mins by fluorescence assay; assay type: ADME; settings: probe CEC
T1 sequence (P05177 whole entry): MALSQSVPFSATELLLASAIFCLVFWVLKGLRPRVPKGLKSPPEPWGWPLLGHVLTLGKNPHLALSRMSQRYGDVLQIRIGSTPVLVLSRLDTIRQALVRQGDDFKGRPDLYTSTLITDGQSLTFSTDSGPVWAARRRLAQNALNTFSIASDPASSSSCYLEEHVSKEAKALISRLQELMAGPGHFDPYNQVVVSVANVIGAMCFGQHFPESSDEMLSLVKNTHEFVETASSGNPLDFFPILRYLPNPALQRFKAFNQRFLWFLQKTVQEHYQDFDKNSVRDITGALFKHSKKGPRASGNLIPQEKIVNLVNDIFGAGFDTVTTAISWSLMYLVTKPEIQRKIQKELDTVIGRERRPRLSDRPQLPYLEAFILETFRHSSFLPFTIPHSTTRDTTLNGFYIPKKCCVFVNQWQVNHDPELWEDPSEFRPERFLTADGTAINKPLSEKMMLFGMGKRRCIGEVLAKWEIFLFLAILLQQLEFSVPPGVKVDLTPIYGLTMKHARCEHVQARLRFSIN

[1] = molecular target: T2, Receptor-type tyrosine-protein kinase FLT3 (Homo sapiens, UniProt P36888); experiment: Inhibition of FLT3 (unknown origin) by FRET-based homogeneous assay
T2 sequence (P36888 whole entry): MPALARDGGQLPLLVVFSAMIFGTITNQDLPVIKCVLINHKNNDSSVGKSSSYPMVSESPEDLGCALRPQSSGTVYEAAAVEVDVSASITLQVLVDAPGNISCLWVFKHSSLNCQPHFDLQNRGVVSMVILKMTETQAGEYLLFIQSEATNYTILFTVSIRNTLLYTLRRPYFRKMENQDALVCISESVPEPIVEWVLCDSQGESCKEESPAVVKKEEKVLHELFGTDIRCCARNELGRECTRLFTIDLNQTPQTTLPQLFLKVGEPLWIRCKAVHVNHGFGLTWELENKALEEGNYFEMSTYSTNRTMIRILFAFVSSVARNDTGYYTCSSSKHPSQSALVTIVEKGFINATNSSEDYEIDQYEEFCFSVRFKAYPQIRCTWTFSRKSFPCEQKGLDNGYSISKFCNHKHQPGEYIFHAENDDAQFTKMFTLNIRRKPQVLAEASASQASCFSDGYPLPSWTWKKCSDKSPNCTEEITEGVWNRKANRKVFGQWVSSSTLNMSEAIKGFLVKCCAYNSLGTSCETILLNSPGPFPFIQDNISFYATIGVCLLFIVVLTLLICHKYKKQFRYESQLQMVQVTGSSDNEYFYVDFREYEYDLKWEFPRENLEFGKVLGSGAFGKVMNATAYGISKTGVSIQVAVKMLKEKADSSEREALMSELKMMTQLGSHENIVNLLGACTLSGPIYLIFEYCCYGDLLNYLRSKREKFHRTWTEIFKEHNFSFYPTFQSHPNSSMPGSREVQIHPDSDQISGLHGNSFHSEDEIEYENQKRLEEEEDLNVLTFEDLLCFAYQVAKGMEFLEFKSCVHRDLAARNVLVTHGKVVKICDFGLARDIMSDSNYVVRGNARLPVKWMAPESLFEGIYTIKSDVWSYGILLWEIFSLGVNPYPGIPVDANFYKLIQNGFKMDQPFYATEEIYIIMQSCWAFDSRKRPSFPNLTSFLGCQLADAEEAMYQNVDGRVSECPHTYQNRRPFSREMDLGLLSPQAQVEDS

[2] = molecular target: Serine/threonine-protein kinase PLK1 (Homo sapiens, UniProt P53350); experiment: Inhibition of PLK1 (unknown origin) by FRET-based homogeneous assay
Chain of Serine/threonine-protein kinase PLK1 (P53350 whole entry): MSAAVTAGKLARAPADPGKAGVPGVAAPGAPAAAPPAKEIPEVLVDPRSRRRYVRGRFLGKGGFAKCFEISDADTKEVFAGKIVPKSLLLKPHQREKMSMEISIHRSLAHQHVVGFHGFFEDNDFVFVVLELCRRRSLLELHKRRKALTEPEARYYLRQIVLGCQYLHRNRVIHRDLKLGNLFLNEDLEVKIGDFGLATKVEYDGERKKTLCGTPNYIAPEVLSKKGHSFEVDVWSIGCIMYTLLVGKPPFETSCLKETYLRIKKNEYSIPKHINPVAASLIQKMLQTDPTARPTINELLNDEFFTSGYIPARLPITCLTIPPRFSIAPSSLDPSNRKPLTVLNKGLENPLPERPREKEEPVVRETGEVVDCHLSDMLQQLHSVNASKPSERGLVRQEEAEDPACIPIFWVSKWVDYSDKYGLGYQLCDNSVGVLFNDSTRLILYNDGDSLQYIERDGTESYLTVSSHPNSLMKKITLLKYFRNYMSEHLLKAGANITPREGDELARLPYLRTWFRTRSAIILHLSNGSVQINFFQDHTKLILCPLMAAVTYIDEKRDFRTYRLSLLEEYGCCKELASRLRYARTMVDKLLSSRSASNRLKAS

Cytochrome P450 3A4 = Cytochrome P450 3A4 (Homo sapiens, UniProt P08684); experiment: Inhibition of CYP3A4 (unknown origin) using BFC substrate after 30 mins by fluorescence assay; assay type: ADME
Chain of Cytochrome P450 3A4 (P08684 whole entry): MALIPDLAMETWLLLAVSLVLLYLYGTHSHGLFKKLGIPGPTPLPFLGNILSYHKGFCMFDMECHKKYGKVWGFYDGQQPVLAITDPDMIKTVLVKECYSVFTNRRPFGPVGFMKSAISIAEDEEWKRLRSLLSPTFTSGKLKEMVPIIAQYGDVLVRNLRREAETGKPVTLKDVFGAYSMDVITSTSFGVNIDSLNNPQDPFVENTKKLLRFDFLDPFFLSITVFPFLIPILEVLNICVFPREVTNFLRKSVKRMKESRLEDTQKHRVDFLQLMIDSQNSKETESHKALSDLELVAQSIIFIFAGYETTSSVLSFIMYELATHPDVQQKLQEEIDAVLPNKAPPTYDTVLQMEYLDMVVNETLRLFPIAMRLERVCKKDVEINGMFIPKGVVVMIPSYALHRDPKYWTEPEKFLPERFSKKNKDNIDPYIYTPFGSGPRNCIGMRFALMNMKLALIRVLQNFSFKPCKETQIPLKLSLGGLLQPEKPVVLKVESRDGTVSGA

[3] = Cmax in SCID mouse at 50 mg/kg, ip after 8 hrs by LCMS/MS method; assay type: ADME, organism-based; parameters: dose 50 mg/kg, route intraperitoneal; settings: in vivo
[4] = Aqueous solubility at pH 7.4; assay type: physicochemical; settings: buffer
[5] = molecular target: T3, Serine/threonine-protein kinase PLK4 (Homo sapiens, UniProt O00444); experiment: Inhibition of human N-terminal GST-tagged PLK4 (1 to 391 residues) expressed in Escherichia coli incubated for 30 mins by ELISA method
T3 sequence (O00444 whole entry): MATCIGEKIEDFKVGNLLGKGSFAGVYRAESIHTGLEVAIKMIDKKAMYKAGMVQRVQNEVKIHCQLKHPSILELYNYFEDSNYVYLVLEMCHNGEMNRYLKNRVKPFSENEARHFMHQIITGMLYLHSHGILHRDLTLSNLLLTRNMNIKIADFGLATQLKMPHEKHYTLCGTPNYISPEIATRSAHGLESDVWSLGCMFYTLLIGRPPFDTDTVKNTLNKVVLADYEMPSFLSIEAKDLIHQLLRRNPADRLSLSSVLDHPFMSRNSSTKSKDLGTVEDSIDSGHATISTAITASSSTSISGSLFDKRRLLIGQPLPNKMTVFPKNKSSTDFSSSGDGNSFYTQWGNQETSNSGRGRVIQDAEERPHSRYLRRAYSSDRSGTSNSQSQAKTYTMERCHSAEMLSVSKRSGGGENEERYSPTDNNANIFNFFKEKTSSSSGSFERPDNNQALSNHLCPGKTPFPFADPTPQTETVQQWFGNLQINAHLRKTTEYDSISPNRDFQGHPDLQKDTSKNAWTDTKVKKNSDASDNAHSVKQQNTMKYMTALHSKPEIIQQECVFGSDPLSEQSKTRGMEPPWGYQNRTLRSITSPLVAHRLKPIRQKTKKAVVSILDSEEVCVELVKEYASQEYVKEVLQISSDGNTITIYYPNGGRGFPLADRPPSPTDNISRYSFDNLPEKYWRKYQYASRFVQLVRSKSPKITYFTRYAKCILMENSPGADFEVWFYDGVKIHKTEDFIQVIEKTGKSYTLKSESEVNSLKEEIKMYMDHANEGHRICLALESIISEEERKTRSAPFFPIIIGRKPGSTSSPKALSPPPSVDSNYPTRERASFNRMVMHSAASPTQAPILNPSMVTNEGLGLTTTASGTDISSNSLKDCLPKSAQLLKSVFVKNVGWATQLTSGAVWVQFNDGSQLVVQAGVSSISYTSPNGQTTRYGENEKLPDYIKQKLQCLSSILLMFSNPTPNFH

[6] = molecular target: Serine/threonine-protein kinase PLK2 (Homo sapiens, UniProt Q9NYY3); experiment: Inhibition of PLK2 (unknown origin) by FRET-based homogeneous assay
Chain of Serine/threonine-protein kinase PLK2 (Q9NYY3 whole entry): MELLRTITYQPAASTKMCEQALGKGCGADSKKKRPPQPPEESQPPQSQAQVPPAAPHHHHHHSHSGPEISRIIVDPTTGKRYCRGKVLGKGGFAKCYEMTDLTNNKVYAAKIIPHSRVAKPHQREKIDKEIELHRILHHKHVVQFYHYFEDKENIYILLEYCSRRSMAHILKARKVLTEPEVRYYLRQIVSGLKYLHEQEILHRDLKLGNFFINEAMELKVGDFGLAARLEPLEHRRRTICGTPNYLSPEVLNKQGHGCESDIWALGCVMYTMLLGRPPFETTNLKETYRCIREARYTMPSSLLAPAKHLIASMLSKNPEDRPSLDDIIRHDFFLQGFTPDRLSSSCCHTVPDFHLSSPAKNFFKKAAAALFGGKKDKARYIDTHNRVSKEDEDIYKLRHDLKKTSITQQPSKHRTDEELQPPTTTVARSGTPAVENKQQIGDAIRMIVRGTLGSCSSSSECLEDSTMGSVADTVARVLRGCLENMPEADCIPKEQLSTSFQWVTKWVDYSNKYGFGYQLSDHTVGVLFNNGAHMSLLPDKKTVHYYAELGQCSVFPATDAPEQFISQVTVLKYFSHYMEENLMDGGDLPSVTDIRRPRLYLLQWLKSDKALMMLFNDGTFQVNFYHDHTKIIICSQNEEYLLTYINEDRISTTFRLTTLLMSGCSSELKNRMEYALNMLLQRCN

[7] = Half life in mouse liver microsomes at 1 uM in presence of NADPH by LC-MS method; assay type: ADME
[8] = molecular target: Vascular endothelial growth factor receptor 2 (Homo sapiens, UniProt P35968); experiment: Inhibition of KDR (unknown origin) by FRET-based homogeneous assay
Chain of Vascular endothelial growth factor receptor 2 (P35968 whole entry): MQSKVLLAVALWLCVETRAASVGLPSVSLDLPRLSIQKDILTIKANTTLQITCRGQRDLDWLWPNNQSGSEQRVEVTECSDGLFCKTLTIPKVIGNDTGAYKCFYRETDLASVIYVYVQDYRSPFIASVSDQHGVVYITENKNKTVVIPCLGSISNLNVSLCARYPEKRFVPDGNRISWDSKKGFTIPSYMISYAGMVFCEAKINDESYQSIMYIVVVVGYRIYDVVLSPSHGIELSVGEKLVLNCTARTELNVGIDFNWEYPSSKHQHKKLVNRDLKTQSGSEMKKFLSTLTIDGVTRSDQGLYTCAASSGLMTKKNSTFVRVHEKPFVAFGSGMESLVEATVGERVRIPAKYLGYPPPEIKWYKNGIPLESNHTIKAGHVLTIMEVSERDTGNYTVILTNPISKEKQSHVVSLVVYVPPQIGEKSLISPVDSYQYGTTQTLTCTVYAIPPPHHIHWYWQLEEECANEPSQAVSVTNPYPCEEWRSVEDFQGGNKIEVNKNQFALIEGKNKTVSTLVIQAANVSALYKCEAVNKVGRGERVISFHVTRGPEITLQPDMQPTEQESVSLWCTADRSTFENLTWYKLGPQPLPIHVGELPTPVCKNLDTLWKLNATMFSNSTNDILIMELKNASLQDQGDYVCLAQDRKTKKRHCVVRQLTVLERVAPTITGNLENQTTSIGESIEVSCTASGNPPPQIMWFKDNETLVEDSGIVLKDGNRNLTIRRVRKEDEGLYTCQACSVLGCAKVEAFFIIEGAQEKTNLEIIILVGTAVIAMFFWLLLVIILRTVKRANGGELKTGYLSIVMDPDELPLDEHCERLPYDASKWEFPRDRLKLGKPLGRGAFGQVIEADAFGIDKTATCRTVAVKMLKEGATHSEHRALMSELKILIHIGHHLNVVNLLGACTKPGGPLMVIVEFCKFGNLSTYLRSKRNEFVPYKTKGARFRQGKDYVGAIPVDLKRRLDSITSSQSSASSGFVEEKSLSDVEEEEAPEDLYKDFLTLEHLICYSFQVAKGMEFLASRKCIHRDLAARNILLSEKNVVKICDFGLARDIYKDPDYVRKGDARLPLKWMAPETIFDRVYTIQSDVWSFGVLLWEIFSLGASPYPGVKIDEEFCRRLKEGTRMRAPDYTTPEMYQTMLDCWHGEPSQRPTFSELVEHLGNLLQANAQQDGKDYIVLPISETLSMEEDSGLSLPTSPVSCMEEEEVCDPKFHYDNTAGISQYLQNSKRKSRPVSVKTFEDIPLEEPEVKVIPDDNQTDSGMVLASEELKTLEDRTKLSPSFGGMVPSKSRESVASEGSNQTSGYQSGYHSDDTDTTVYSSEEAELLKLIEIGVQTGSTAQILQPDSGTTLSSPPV

Cytochrome P450 2D6 = Cytochrome P450 2D6 (Homo sapiens, UniProt P10635); experiment: (§2) Inhibition of CYP2D6 (unknown origin) using AMMC substrate after 45 mins by fluorescence assay; assay type: ADME
Chain of Cytochrome P450 2D6 (P10635 whole entry): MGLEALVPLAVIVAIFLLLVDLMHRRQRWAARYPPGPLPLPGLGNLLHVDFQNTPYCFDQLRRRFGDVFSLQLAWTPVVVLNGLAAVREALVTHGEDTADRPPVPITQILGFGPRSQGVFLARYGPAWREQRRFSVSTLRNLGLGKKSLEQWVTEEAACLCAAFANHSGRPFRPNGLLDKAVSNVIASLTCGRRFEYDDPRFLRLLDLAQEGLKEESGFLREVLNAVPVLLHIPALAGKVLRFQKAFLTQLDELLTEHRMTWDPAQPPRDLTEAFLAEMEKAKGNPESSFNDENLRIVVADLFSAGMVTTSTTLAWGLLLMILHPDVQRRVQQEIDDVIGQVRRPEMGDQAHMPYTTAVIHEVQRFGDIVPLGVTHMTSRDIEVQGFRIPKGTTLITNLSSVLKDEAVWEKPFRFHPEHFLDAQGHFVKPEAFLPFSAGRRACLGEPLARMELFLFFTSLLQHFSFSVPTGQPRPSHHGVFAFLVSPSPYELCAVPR

[9] = molecular target: Serine/threonine-protein kinase PLK3 (Homo sapiens, UniProt Q9H4B4); experiment: Inhibition of PLK3 (unknown origin) by FRET-based homogeneous assay
Aurora kinase B = Aurora kinase B (Homo sapiens, UniProt Q96GD4); experiment: Inhibition of AURKB (unknown origin) by FRET-based homogeneous assay
Chain of Aurora kinase B (Q96GD4 whole entry): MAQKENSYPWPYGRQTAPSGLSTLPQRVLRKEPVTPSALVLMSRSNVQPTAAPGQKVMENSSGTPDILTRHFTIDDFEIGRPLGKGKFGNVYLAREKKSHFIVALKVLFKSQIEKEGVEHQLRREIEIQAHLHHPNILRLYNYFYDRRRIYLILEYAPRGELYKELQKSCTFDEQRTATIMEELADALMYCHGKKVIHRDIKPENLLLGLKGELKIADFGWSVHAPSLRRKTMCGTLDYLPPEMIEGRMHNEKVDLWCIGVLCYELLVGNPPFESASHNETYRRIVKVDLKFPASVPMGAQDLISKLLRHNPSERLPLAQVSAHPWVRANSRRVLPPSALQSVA

[10] = Half life in human liver microsomes at 1 uM in presence of NADPH by LC-MS method; assay type: ADME
[11] = Protein binding in plasma (unknown origin); assay type: ADME, cell-free; settings: read-out: PPB (converted)
[12] = AUC in SCID mouse at 50 mg/kg, ip after 8 hrs by LCMS/MS method; assay type: ADME, organism-based; parameters: time < 8 hr, dose 50 mg/kg, route intraperitoneal; settings: plasma
Cytochrome P450 2C9 = Cytochrome P450 2C9 (Homo sapiens, UniProt P11712); experiment: Inhibition of CYP2C9 (unknown origin) using MFC substrate after 45 mins by fluorescence assay; assay type: ADME
Chain of Cytochrome P450 2C9 (P11712 whole entry): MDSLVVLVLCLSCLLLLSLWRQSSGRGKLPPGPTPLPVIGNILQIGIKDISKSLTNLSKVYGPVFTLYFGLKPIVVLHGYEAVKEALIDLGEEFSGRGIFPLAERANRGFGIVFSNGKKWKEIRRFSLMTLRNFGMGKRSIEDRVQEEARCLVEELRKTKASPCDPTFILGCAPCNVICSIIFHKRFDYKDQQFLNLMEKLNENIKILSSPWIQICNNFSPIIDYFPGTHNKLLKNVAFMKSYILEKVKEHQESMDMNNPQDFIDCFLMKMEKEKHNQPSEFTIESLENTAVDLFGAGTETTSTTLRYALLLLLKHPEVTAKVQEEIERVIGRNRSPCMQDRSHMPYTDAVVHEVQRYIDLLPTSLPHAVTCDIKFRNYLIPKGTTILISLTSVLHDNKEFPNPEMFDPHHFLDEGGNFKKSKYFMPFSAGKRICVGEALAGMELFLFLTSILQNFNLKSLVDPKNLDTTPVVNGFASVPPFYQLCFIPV

MCF7 = experiment: Cytotoxicity against human MCF7 cells after 5 days by SRB assay; assay type: functional; settings: MCF7, 120 h
CYP2D6 = CYP2D6 (Homo sapiens, UniProt P10635); experiment: as §2; assay type: ADME; settings: probe AMMC
Chain of CYP2D6 (P10635 whole entry): as the sequence (P10635 whole entry) above

Cytochrome P450 2C19 = Cytochrome P450 2C19 (Homo sapiens, UniProt P33261); experiment: Inhibition of CYP2C19 (unknown origin) using MFC substrate after 30 mins by fluorescence assay; assay type: ADME
Chain of Cytochrome P450 2C19 (P33261 whole entry): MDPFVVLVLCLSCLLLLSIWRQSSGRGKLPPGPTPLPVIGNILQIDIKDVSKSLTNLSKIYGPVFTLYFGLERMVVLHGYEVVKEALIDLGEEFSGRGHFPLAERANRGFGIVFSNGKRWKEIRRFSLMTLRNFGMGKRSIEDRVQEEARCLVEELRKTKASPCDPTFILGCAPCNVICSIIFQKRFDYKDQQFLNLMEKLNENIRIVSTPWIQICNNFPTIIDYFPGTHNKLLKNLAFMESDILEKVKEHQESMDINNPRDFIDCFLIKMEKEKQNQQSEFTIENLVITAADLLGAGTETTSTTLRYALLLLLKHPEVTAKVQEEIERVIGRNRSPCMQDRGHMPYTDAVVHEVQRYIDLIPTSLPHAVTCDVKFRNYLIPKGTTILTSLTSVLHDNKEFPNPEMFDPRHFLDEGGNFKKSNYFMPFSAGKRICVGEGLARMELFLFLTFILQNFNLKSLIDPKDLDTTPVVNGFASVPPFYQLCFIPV

Cytochrome P450 1A2 = molecular target: T4, Cytochrome P450 1A2 (Homo sapiens, UniProt P05177); experiment: as §1; assay type: ADME
T4 sequence (P05177 whole entry): T1 sequence (P05177 whole entry)

MDA-MB-468 [13] = experiment: Cytotoxicity against human MDA-MB-468 cells after 5 days by SRB assay; assay type: functional; settings: MDA-MB-468, 120 h
[14] = AUC in SCID mouse at 25 mg/kg, po by LCMS/MS method; assay type: ADME, organism-based; parameters: dose 25 mg/kg, route oral; settings: plasma
[15] = Cmax in SCID mouse at 25 mg/kg, po by LCMS/MS method; assay type: ADME, organism-based; parameters: dose 25 mg/kg, route oral; settings: in vivo
MDA-MB-231 = experiment: Cytotoxicity against human MDA-MB-231 cells after 5 days by SRB assay; assay type: functional; settings: MDA-MB-231, 120 h
[16] = Cytotoxicity against human SKBR3 cells after 5 days by SRB assay; assay type: functional; settings: SK-BR-3, 120 h
Mus musculus = experiment: Toxicity in human MDA-MB-468 cells xenografted mouse assessed as reduction in body weight at 25 mg/kg, po QD for 21 days; assay type: organism-based; parameters: dose 25 mg/kg, route oral; settings: in vivo, 504 h
MDA-MB-468 [17] = experiment: Antitumor activity against human MDA-MB-468 cells xenografted in mouse assessed as tumor growth inhibition at 50 mg/kg, ip QD for 21 days; assay type: functional, organism-based; parameters: dose 50 mg/kg

Structure (SMILES) | IC50 at 15 min (CYP1A2) | IC50 [1] | IC50 [2] | IC50 (Cytochrome P450 3A4) | Cmax [3] | solubility [4] | IC50 [5] | IC50 [6] | half-life at 1 µM [7] | IC50 [8] | IC50 (Cytochrome P450 2D6) | IC50 [9] | half-life at 1 µM [10] | fraction unbound [11] | AUC at 8 h [12] | IC50 (Cytochrome P450 2C9) | GI50 (MCF7) | IC50 (Cytochrome P450 2C19) | IC50 (Cytochrome P450 1A2) | GI50 (MDA-MB-468 [13]) | further results
O=C1Nc2ccccc2/C1=C\c1ccc2c(/C=C/c3ccncc3)n[nH]c2c1 | > 10000 nM | 35 nM | > 100000 nM | 1000 nM | < 10 ng/mL | 0.21 µg/mL (≈ 0.576 µM) | 2.4 nM | > 100000 nM | 6 min | 34 nM | 20000 nM | > 100000 nM | 29 min | 0.011 | – | – | – | – | – | – | IC50 (Aurora kinase B): 24 nM
COc1ccc2c(c1)/C(=C\c1ccc3c(/C=C/c4ccc(N5CCN(C)CC5)nc4)n[nH]c3c1)C(=O)N2 | > 10000 nM | – | – | > 1000 nM | 90 ng/mL | < 0.1 µg/mL | 7.3 nM | – | 2 min | – | – | – | 14 min | 0.009 | 190 ng·h/mL | 1600 nM | < 10 nM | 800 nM | – | – | IC50 at 45 min (CYP2D6): > 10000 nM
COc1ccc2c(c1)[C@]1(C[C@H]1c1ccc3c(/C=C/c4ccc(CN(C)C)cc4)n[nH]c3c1)C(=O)N2 (relative stereo) | – | 19 nM | – | > 1000 nM | – | – | – | – | – | 910 nM | > 10000 nM | – | – | – | – | 850 nM | < 1 nM | 750 nM | > 10000 nM | 10 nM | AUC [14]: 730 ng·h/mL; Cmax [15]: 350 ng/mL; GI50 (MDA-MB-231): < 10 nM; GI50 [16]: 6400 nM; Activity (Mus musculus): Non-toxic
CN(C)Cc1ccc(/C=C/c2n[nH]c3cc([C@@H]4C[C@@]45C(=O)Nc4ccccc45)ccc23)cc1 (relative stereo) | – | – | > 100000 nM | > 10000 nM | 2600 ng/mL | 1.7 µg/mL (≈ 3.91 µM) | – | > 100000 nM | 13 min | 110 nM | 3100 nM | > 100000 nM | > 60 min | 0.053 | 7200 ng·h/mL | > 1000 nM | < 10 nM | > 1000 nM | > 10000 nM | < 10 nM | AUC [14]: 310 ng·h/mL; Cmax [15]: 290 ng/mL; GI50 (MDA-MB-231): < 10 nM; GI50 [16]: 17800 nM; Activity (Mus musculus): Non-toxic
Cc1cc(Nc2cc(N3CCN(C)CC3)nc(Sc3ccc(NC(=O)C4CC4)cc3)n2)n[nH]1 | – | – | – | – | – | – | – | – | – | – | – | – | – | – | – | – | – | – | – | – | TGI (MDA-MB-468 [17]): 73%
